In US11571437B2, “Methods of treating cancer using PRMT5 inhibitors” (Janssen Pharmaceutica NV, priority 2019, dated 2023):

Legend:
PRMT5/MEP50 = PRMT5/MEP50 (Homo sapiens, UniProt O14744); experiment: surface plasmon resonance binding studies
Description: (§1) This unique mode-of-binding translates into very potent and time-dependent PRMT5 enzyme inhibition.

PRMT5/MEP50 complex = PRMT5/MEP50 complex (Homo sapiens, UniProt O14744); experiment: in vitro thermal shift experiments; assay type: binding
Sequence of PRMT5/MEP50 complex (O14744 whole entry): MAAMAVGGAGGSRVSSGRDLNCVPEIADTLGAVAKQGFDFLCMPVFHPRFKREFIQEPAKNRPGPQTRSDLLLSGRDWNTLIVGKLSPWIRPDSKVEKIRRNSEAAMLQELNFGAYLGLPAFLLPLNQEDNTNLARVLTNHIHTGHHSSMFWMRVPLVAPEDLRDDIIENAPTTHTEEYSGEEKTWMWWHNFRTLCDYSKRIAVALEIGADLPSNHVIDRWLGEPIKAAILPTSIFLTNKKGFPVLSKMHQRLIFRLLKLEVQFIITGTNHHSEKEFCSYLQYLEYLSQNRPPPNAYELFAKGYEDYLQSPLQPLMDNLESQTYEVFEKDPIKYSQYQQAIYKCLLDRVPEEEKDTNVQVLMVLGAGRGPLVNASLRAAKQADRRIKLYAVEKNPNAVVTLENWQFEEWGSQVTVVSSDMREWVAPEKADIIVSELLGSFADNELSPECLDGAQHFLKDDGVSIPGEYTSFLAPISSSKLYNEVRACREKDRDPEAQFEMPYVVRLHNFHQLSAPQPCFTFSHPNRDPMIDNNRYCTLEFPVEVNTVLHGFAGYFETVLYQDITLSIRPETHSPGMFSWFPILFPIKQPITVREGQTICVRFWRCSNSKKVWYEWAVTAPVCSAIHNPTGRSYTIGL
Sequence of PRMT5/MEP50 complex (Q9BQA1 whole entry partner): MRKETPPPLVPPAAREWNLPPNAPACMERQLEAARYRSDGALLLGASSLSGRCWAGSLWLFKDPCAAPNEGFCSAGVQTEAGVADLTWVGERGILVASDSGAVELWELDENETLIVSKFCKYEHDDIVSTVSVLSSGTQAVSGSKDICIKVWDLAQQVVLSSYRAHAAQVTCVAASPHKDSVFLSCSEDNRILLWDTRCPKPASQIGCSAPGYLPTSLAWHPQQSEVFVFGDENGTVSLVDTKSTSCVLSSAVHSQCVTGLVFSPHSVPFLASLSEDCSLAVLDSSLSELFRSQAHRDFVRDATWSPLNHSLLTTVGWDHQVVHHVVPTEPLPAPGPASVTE
Description: as §1

[1] = test system: NCI-H1048 human xenograft model of SCLC; experiment: NCI-H1048 human SCLC xenograft, once daily oral dosing up to 28 days (Study 1); assay type: in vivo, mice
Procedure: JNJ-64619178 was tested for antitumor activity in the NCI-H1048 human xenograft model of SCLC. Male mice were subcutaneously implanted with NCI-H1048 cells, and tumors were allowed to grow for 14 days, reaching 174±51 mm^3 in volume, when treatment was started. Mice were administered once daily oral doses of JNJ-64619178 at 1, 3, and 10 mg/kg or 20% hydroxypropyl-β-cyclodextrin (HP-β-CD) vehicle control for up to 28 days.
FIG. 1 details the individual tumor regrowth observed following cessation of once daily treatment with 10 mg/kg JNJ 64619178 or vehicle control. In all 8 mice treated with 10 mg/kg JNJ 64619178, tumor regrowth began approximately 14 days after cessation of dosing, with tumors reaching ethical limits by Day 92 postimplantation.

[2] = test system: NCI H1048 human SCLC xenografts; experiment: second NCI-H1048 human SCLC mouse xenograft study, 10 days dosing and 10 days regrowth observation; assay type: in vivo, mice; settings: 10 mg/kg oral gavage for 10 days
NCI-H1048 xenografts = experiment: NCI-H1048 xenograft, continuous versus 7+/7- dosing (Study 3); assay type: in vivo, mice; settings: 10 mg/kg once daily oral, at day 28
Procedure: FIG. 4 is a line graph showing extended tumor growth inhibition using a dosing cessation of the compound of the disclosure in the NCI-H1048 tumor model at a JNJ64619178 dosage of 10 mg/kg for either 28 consecutive days or for two cycles of 7 daily drug treatment followed by 7 days dosing holidays (7+/7 −, 2 cycles).
In all xenografts studies, the average tumor volume at treatment initiation was about 150 mm^3 and mean tumor volumes (mm^3)±SEM of each group were graphed over time as indicated in FIG. 4.

[3] = Phase 1 open-label study Part 1: safety and tolerability; assay type: in vivo, human
Description: (§2) This is a multi-part, Phase 1, open-label, multicenter study to evaluate the safety, pharmacokinetics, pharmacodynamics, and preliminary clinical activity of JNJ-64619178 monotherapy administered either to adult human subjects with advanced solid tumors or B cell non-Hodgkin lymphomas who previously received or are ineligible for standard treatment options, or to adult subjects with lower risk myelodysplastic syndromes (MDS) who are red blood cell (RBC) transfusion-dependent and relapsed or refractory to erythropoiesis-stimulating agent (ESA) treatment.
Fifteen (15) participants with various solid tumors (e.g., breast cancer, prostate cancer, salivary duct carcinoma, adenoid cystic carcinoma) were dosed in the “Part 1” study described below with JNJ-64619178 at 0.5 mg (1′ cohort), 1 mg (2nd cohort), 2 mg (3rd cohort) and 4 mg (4th cohort) under a schedule of 14 days continuous dose administration followed by a 7-day rest period (14 days on/7 days off in a 21-day cycle). Average treatment duration ranged from 4 weeks in the 4th cohort (4 mg 14 days on/7 days off) to 6 months in the 2nd cohort (1 mg 14 days on/7 days off). […] The Part 1 study is ongoing.
(§3) Fifty-four (54) participants with various solid tumors (e.g., breast cancer, prostate cancer, salivary duct carcinoma, adenoid cystic carcinoma, and uveal melanoma) were dosed in the “Part 1” study described below with JNJ-64619178 at 0.5 mg (1st cohort), 1 mg (2nd cohort), 2 mg (3rd cohort), 4 mg (4th cohort), and 3 mg (5th cohort) under a schedule of 14 days continuous dose administration followed by a 7-day rest period (14 days on/7 days off in a 21-day cycle); or at 1 mg (6th cohort) or 2 mg (7th cohort) under a schedule of 21 days continuous dosing. Average treatment duration was 3 months, with a range of 0.4 to 22.4 months. […] The maximum tolerated dose was considered 3 mg on the 14 days on/7 days off schedule or 2 mg on the continuous dosing schedule. […] The participant with confirmed PR was from cohort 2.
The JNJ-64619178 starting dose is based on toxicology results obtained using no observed adverse effect level (NOAEL) dose, more conservative than the highest non-severely toxic dose (HNSTD) in the dog as the most sensitive species. Using a default safety factor of 6 (used for HNSTD in non-rodents), a starting dose of 0.54 mg once daily (QD) was obtained, which was rounded to 0.5 mg QD. A single dose of the study drug will be administered in the pharmacokinetic run-in phase for Part 1. During the treatment phase, the study drug will be administered for 14 consecutive days followed by 7 days of rest (14 days on/7 days off dose administration) on a 21 day cycle. Alternative dosing schedules (e.g., continuous dosing, 7 days on/7 days off, and 7 days on/14 days off) are also evaluated.
The study was initiated with dose Schedule A (14 days on/7 days off dose administration on a 21-day cycle). Table B below provides an example of possible dose escalation.

various solid tumors = experiment: Phase 1 open-label study Part 1: preliminary clinical activity (RECIST); assay type: in vivo, human
Description: as §2, §3
(§4) Two provisional RP2Ds were selected: 1.5 mg intermittently and 1 mg QD.

[4] = Phase 1 open-label study Part 1: plasma pharmacokinetics; assay type: in vivo; settings: human plasma, oral capsules
Procedure: as §4
The pharmacokinetic run-in phase will evaluate the single-dose pharmacokinetics of JNJ 64619178 prior to subsequent daily dose administration in the treatment phase. Subjects will be administered a single-dose of study drug at the site on Day 1 and remain at site for at least 6 hours for pharmacokinetic assessments. The single-dose of study drug will be followed by a 6 day rest period (i.e., Days 2 to 7 [a range of 5 to 10 days is allowed]) during which pharmacokinetic blood sample and ECG collection will be conducted. Certain subjects in Part 1 may not participate in the pharmacokinetic run-in phase.
The treatment phase begins on Cycle 1 Day 1 with the administration of the study drug and continues until the completion of the end-of-treatment visit. During the treatment phase, multiple-dose pharmacokinetics of JNJ-64619178 will be evaluated. On Cycle 1 Day 14, subjects in Part 1 will remain at site for at least 8 hours after the study drug administration for pharmacokinetic and ECG assessments. Study drug should be administered at approximately the same time each day for accurate evaluation of the pharmacokinetics of JNJ 64619178.

plasma SDMA = experiment: Phase 1 open-label study Part 1: target engagement by plasma SDMA; assay type: in vivo, human; settings: even with intermittent dosing
Procedure: as §4

Sequence of PRMT5/MEP50 (O14744 whole entry): as the sequence (O14744 whole entry) above
Sequence of PRMT5/MEP50 (Q9BQA1 whole entry partner): as the sequence (Q9BQA1 whole entry partner) above

Nc1nc2cc(CC[C@H]3C[C@@H](n4ccc5c(N)ncnc54)[C@H](O)[C@@H]3O)ccc2cc1Br [JNJ-64619178, (1S,2R,3S,5R)-3-(2-(2-amino-3-bromoquinolin-7-yl)ethyl)-5-(4-amino-7H-pyrrolo[2,3-d]pyrimidin-7-yl)cyclopentane-1,2-diol]
binding kinetics (PRMT5/MEP50): slow off-rate binding kinetics | additional stabilization of the PRMT5/MEP50 complex in comparison to SAM binding (PRMT5/MEP50 complex): 12 degrees Celsius | time complete regression was maintained postdose ([1]; 10 mg/kg once daily oral): up to 14 days | tumor regression ([1]; 10 mg/kg once daily oral): complete regression of tumors | tumor growth inhibition (TGI) ([1]; 10 mg/kg once daily oral, Day 42 postimplantation, vs vehicle control): 99.1% | start of tumor regrowth after cessation of dosing ([1]; 10 mg/kg once daily, all 8 mice): approximately 14 days | antitumor activity (statistical significance) compared with vehicle control ([1]; 1, 3, and 10 mg/kg once daily oral): statistically significant antitumor activity | antitumor activity (biological significance) ([1]; 3 and 10 mg/kg once daily oral): biologically significant antitumor activity | tumor growth inhibition (TGI) [2]: up to 72.9% | tumor growth inhibition (TGI) compared to vehicle (NCI-H1048 xenografts; 28 consecutive days): 62% | tumor growth inhibition (TGI) compared to vehicle (NCI-H1048 xenografts; two cycles of 7 days on/7 days off (7+/7-)): 63% | maximum tolerated dose ([3]; 14 days on/7 days off schedule): 3 mg | maximum tolerated dose ([3]; continuous dosing schedule): 2 mg | dose-limiting toxicities ([3]; human, in vivo): thrombocytopenia of Grade 4 or of Grade 3 lasting longer than 7 days | grade of non-hematologic toxicities ([3]; human, in vivo): Grade 1 or 2 except for one case of Grade 3 vomiting lasting 24 hours | adverse events observed in >20% of participants ([3]; in vivo): gastrointestinal disorders (nausea, vomiting, diarrhea), hematologic disorders (thrombocytopenia, anemia, neutropenia), general disorders (fatigue and asthenia) and dysgeusia | dose limiting toxicities (DLTs) ([3]; in vivo): No dose limiting toxicities (DLTs) were observed | most frequently reported adverse events ([3]; in vivo): hematologic, gastrointestinal and dermatologic | best overall response: confirmed partial response (various solid tumors; 1 of 45 participants evaluable for efficacy, from cohort 2): 4.3% | best overall response: progressive disease (various solid tumors; 20 of 45 participants evaluable for efficacy): 43% | best overall response: stable disease (various solid tumors; 24 of 45 participants evaluable for efficacy): 52% | response (RECIST) in ACC (various solid tumors; adenoid cystic carcinoma): confirmed partial response | duration of stable disease (various solid tumors; patients with ACC, prostate cancer, salivary gland carcinomas, and other tumor types): greater than 6 months | plasma Cmax and AUC dose dependence [4]: linearly dose-proportional | target engagement as measured by plasma SDMA (plasma SDMA): Robust target engagement
